Laboratory results as given in patent US20250082656A1, “DOSAGE REGIMENS FOR TREATMENT OF DENGUE INFECTION” (Atea Pharmaceuticals, Inc., priority 2022, published 2025).

Tests used:
[1] = Plasma PK after single oral dose of AT-752, monkeys; format: in vivo, cynomolgus monkeys; settings: monkeys, oral 300 mg/kg or 60 mg/kg
Experimental: Male cynomolgus monkeys were administered 300 mg/kg Compound 2 (AT-752). Blood samples were collected up to 24 hrs. post dose, plasma separated and analyzed for Compound 1 (AT-281), Compound 3 (AT-551), and Compound 6 (AT-273) by LC-MS/MS. Data are express as mean+/−SD (n=3-5/time point). The x-axis is time post the dose measured in hours and the y-axis is the plasma concentration of the metabolites measured in nanomoles/mL). The experimental procedure is provided in Example 14.
Male non-naïve cynomolgus monkeys (Hainan Jingang Laboratory Animal Co. Ltd., China), at least 2 kg body weight, were individually housed during the study in stainless steel mesh cages, provided ad libitum access to RO water, fed twice daily (except on the day of dosing when they were fed once) with ˜60 g Certified Monkey Diet each feed (Beijing Vital Keao Feed Co., Ltd., Beijing, China) and given daily treats of fresh fruit. They (n=5) were administered a dose of Compound 2 (AT-752) at 300 mg/kg in 40% PEG400, 10% solutol HS15, 50% 100 mM citrate buffer, pH 4.5 (v/v) by oral gavage, and blood samples (˜0.5 mL) were collected at 1, 2, 4, 8, 12 and 24 h post dose. Plasma was separated at each time point for pharmacokinetics, and stored at −70° C. […] Separately, three monkeys were given an oral dose of Compound 2 (AT-752) as powder in capsules at 60 mg/kg ([…] (AT-281) equivalent dose of 55 mg/kg), and blood samples collected at 12, 24 and 48 h post dose.
(§1) Pharmacokinetic measurements for FIGS. 11, 12, 13, 14, and 15 were analyzed using LC-MS/MS according to the protocol described herein. Plasma samples were prepared for MS analysis by adding internal standards and extracting with 20 volumes chilled ACN. After vortex (800 rpm for 10 min) and centrifugation (4,000 rpm, 15 min, 4° C.), the supernatants (25 μL) were diluted with an equal volume of H2O, mixed and spun again. After adding internal standards, the PBMC samples (10^6 cells) were lyzed with 300 μL MeOH/H2O (70:30, v/v) and 40 mM dibutylammonium acetate (DBAA), mixed by vortex and centrifuged (12,000 rpm, 15 min, 4° C.). Aliquots of the supernatants (35 μL) were dried under nitrogen and reconstituted in H2O, then mixed and spun again. […] A binary nonlinear gradient with mobile phases A (0.1% formic acid in water) and B (0.1% formic acid in ACN) were used to elute samples at 0.8 mL/min, with a run time of 5 min. […] A binary nonlinear gradient with mobile phases A (0.001% NHr H2O, 0.18 mM DBAA in H2O) and B (10 mM N,N-dimethyl-hexylamine, 3 mM NH4OAc in ACN/H2O (50.50, v/v)) were used to elute samples at 0.5 mL/min, with a run time of 3 min. Standards in 50% MeOH were used for calibration. […] Internal standards (ISS) as described previously (Good et al., Preclinical evaluation of AT-527, a novel guanosine nucleotide prodrug with potent, pan-genotypic activity against hepatitis C virus. PLos One 15:e02271045) were used to correct for variations in recovery.
(§2) Data analysis of the pharmacokinetic data generated according to Example 21 and presented in FIGS. 11, 12, 13, 14, and 15 was analyzed according to the procedure described herein. Plasma concentrations of Compound 1 (AT-281), Compound 3 (AT-551) and Compound 6 (AT-273) were subjected to non-compartmental pharmacokinetic analysis using Phoenix WinNonlin software (version 6.3 or above, Pharsight, Mountain View, CA). The linear/log trapezoidal rule was applied in obtaining the PK parameters.

[2] = test system: DENV-2 D2Y98P; format: in vivo, AG129 mice
[3] = Safety study in humans (SAD and MAD cohorts); format: in vivo, human
Experimental: Safety assessments including adverse events, standard clinical laboratory tests, vital sign measurements, electrocardiograms, and physical examinations were performed.

[4] = Pharmacokinetic study in SAD cohorts; format: in vivo, human; settings: South/Southeast/East Asian versus mostly Caucasian cohorts, 1000 mg
Experimental: as §1, §2

[5] = SD rat plasma
[6] = Plasma stability, human plasma; settings: 2 μM, 37° C.
[7] = Plasma stability, cynomolgus monkey plasma; settings: 2 μM, 37° C.
[8] = MAD 750 mg BID × 4 days plus one dose Day 5, 6 patients
[9] = MAD 750 mg TID × 4 days plus one dose Day 5, 6 patients
[10] = MAD 1000 mg QD × 7 days, 6 patients
[11] = SAD 1000 mg fasting, 6 patients
[12] = SAD 1000 mg, South/Southeast/East Asian origin, 6 patients
[13] = SAD 1500 mg fasting, 6 patients

SMILES: CNc1nc(N)nc2c1ncn2[C@@H]1O[C@H](CO[P@](=O)(N[C@@H](C)C(=O)OC(C)C)Oc2ccccc2)[C@@H](O)[C@@]1(C)F [Compound 2, isopropyl ((R)-(((2R,3R,4R,5R)-5-(2-amino-6-(methylamino)-9H-purin-9-yl)-4-fluoro-3-hydroxy-4-methyltetrahydrofuran-2-yl)methoxy)(phenoxy)phosphoryl)-L-alaninate]
- unusual or adverse clinical signs [1]: no such signs noted
- health scores versus vehicle control group ([2]; Day 4 to Day 9 pi, p<0.001 by t-test): significantly better health scores
- Viremia versus vehicle only group ([2]; Day 6 pi, 1000 mg/kg loading, 500 mg/kg BID 7 days oral, p=0.000014 by t-test): significantly lower than the vehicle only group
- weight loss versus vehicle control mice ([2]; Days 5, 7 and 8 pi, p<0.001 by t-test): significantly reduced weight loss
- spleen viral load versus control group ([2]; by Day 7 pi): not statistically different
- Viremia ([2]; by Day 8 pi, virus still measurable in all surviving controls, p=0.0045): cleared in all treated animals
- survival (Kaplan-Meier) versus vehicle control group ([2]; p=0.0004, Mantel-Cox log-rank test): significantly improved the survival
- Headache, subjects reporting [3, 8]: 1
- Nausea, subjects reporting [3, 8]: 1
- Vomiting, subjects reporting [3, 8]: 1
- Headache, subjects reporting [3, 9]: 0
- Nausea, subjects reporting [3, 9]: 0
- Vomiting, subjects reporting [3, 9]: 0
- Headache, subjects reporting [3, 10]: 0
- Nausea, subjects reporting [3, 10]: 0
- Vomiting, subjects reporting [3, 10]: 0
- Headache, subjects reporting ([3]; SAD 250 mg fasting, 6 patients): 0
- Nausea, subjects reporting ([3]; SAD 250 mg fasting, 6 patients): 0
- Vomiting, subjects reporting ([3]; SAD 250 mg fasting, 6 patients): 0
- Headache, subjects reporting ([3]; SAD 500 mg fasting, 7 patients): 2
- Nausea, subjects reporting ([3]; SAD 500 mg fasting, 7 patients): 0
- Vomiting, subjects reporting ([3]; SAD 500 mg fasting, 7 patients): 0
- Headache, subjects reporting ([3]; SAD 500 mg fed, 7 patients): 4
- Nausea, subjects reporting ([3]; SAD 500 mg fed, 7 patients): 1
- Vomiting, subjects reporting ([3]; SAD 500 mg fed, 7 patients): 0
- Headache, subjects reporting [3, 11]: 1
- Nausea, subjects reporting [3, 11]: 1
- Vomiting, subjects reporting [3, 11]: 1
- Headache, subjects reporting [3, 12]: 0
- Nausea, subjects reporting [3, 12]: 0
- Vomiting, subjects reporting [3, 12]: 0
- Headache, subjects reporting [3, 13]: 2
- Nausea, subjects reporting [3, 13]: 1
- Vomiting, subjects reporting [3, 13]: 2
- tolerability ([3]; healthy subjects, SAD 250-1500 mg and MAD cohorts, oral): well tolerated
- serious adverse events or discontinuations due to adverse events ([3]; healthy subjects, SAD and MAD cohorts): no serious adverse events or discontinuations due to adverse events were reported
- pharmacokinetic ethnic sensitivity [4]: absence of pharmacokinetic ethnic sensitivity
- drug remaining at the first time point (10 min of incubation) [5]: no drug remaining
- % of starting concentration remained after 120 min of incubation [6]: 93.5%
- % of starting concentration remained after 120 min of incubation [7]: 98.2%
